According to PubChem BioAssay AID248 (DTP/NCI, 2004):
Values joined by “and” are separate entries in the source; they are usually repeats but may differ in a detail not shown here. Equal values may be shown once. Toxic doses and inconclusive results are not listed. Cut-off read from the data, not from the text of the source: active = T/C of 150% or more; inactive = T/C below 125%.

System: L1210 leukemia ip in BDF1 mice, survival T/C
Experiment: NCI In Vivo Anticancer Drug Screen. Data for tumor model L1210 Leukemia (intraperitoneal) in B6D2F1 (BDF1) mice
Conditions: endpoint: mean survival time, higher = longer survival
In short: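 Read-out is survival time, reported as the treated-group measurement over the vehicle-control measurement.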

[1] = dose: 100.0 mg/kg/injection, schedule: Q01DX009 (ip), vehicle: saline with Tween-80
[2] = dose: 100.0 mg/kg/injection, schedule: Q04DX003 (ip), vehicle: saline with Tween-80
[3] = dose: 200.0 mg/kg/injection, schedule: Q04DX003 (ip), vehicle: saline with Tween-80
[4] = dose: 400.0 mg/kg/injection, schedule: Q04DX003 (ip), vehicle: saline with Tween-80
[5] = dose: 100.0 mg/kg/injection, schedule: Q01DX009 (ip), vehicle: Klucel (hydroxypropylcellulose) (HPC)
[6] = dose: 100.0 mg/kg/injection, schedule: Q04DX003 (ip), vehicle: Klucel (hydroxypropylcellulose) (HPC)
[7] = dose: 200.0 mg/kg/injection, schedule: Q01DX009 (ip), vehicle: Klucel (hydroxypropylcellulose) (HPC)
[8] = dose: 200.0 mg/kg/injection, schedule: Q04DX003 (ip), vehicle: Klucel (hydroxypropylcellulose) (HPC)
[9] = dose: 400.0 mg/kg/injection, schedule: Q01DX009 (ip), vehicle: Klucel (hydroxypropylcellulose) (HPC)
[10] = dose: 400.0 mg/kg/injection, schedule: Q04DX003 (ip), vehicle: Klucel (hydroxypropylcellulose) (HPC)
[11] = dose: 100.0 mg/kg/injection, schedule: Q01DX001 (ip), vehicle: saline
[12] = dose: 200.0 mg/kg/injection, schedule: Q01DX001 (ip), vehicle: saline
[13] = dose: 400.0 mg/kg/injection, schedule: Q01DX001 (ip), vehicle: saline

Measured: T/C

Cc1ncc(C#N)n1C(C)c1ccccc1 (stereo not drawn)
inactive: dose: 100.0 mg/kg/injection, schedule: Q01DX001 (ip), vehicle: Klucel (hydroxypropylcellulose) (HPC) 103 % of control | dose: 200.0 mg/kg/injection, schedule: Q01DX001 (ip), vehicle: Klucel (hydroxypropylcellulose) (HPC) 100 % of control

Clc1nc(N2CC2)nc(N2CC2)n1
inactive: dose: 2.5 mg/kg/injection, schedule: Q01DX001 (ip), vehicle: carboxymethylcellulose (CMC) 112 % of control | dose: 5.0 mg/kg/injection, schedule: Q01DX001 (ip), vehicle: carboxymethylcellulose (CMC) 112 % of control | dose: 10.0 mg/kg/injection, schedule: Q01DX001 (ip), vehicle: carboxymethylcellulose (CMC) 117 % of control | dose: 15.0 mg/kg/injection, schedule: Q01DX001 (ip), vehicle: carboxymethylcellulose (CMC) 114 % of control

O=[N+]([O-])c1ccc(/C=N/c2ncc(Br)s2)o1
inactive: dose: 50.0 mg/kg/injection, schedule: Q01DX009 (ip), vehicle: saline with Tween-80 102 % of control | [1] 98 % of control | [2] 111 % of control | [3] 111 % of control

ClCCOC(OCCCl)OCCCl
inactive: [1] 105 % of control | [2] 103 % of control | dose: 200.0 mg/kg/injection, schedule: Q01DX009 (ip), vehicle: saline with Tween-80 87 % of control | [3] 104 % of control | [4] 95 % of control

c1ccc(-c2ccc(-c3ccccc3)o2)cc1
inactive: dose: 100.0 mg/kg/injection, schedule: Q04DX002 (ip), vehicle: Klucel (hydroxypropylcellulose) (HPC) 106 % of control | dose: 200.0 mg/kg/injection, schedule: Q04DX002 (ip), vehicle: Klucel (hydroxypropylcellulose) (HPC) 95 % of control | dose: 400.0 mg/kg/injection, schedule: Q04DX002 (ip), vehicle: Klucel (hydroxypropylcellulose) (HPC) 106 % of control

CCCCNC(=O)Nc1ccc(OC)cc1OC
inactive: [5] 101 % of control | [6] 92 % of control | [7] 96 % of control | [8] 95 % of control | [9] 118 % of control | [10] 95 % of control

C/C=C(\C)C(N)=Nc1ccc(Cl)c(Cl)c1
inactive: dose: 55.0 mg/kg/injection, schedule: Q01DX Z (ip), vehicle: methylcellulose (MC) 106 % of control | dose: 83.0 mg/kg/injection, schedule: Q01DX Z (ip), vehicle: methylcellulose (MC) 102 % of control | dose: 125.0 mg/kg/injection, schedule: Q01DX Z (ip), vehicle: methylcellulose (MC) 102 % of control

COc1cc2cc3c4cc(OC)c(OC)cc4cc[n+]3c(/C=C/c3cccc([N+](=O)[O-])c3)c2cc1OC
inactive: dose: 100.0 mg/kg/injection, schedule: Q04DX002 (ip), vehicle: carboxymethylcellulose (CMC) 113 % of control | dose: 100.0 mg/kg/injection, schedule: Q04DX002 (ip), vehicle: other 97 % of control and 105 % of control and 109 % of control | dose: 100.0 mg/kg/injection, schedule: Q04DX003 (ip), vehicle: other 107 % of control | dose: 200.0 mg/kg/injection, schedule: Q04DX002 (ip), vehicle: carboxymethylcellulose (CMC) 109 % of control | dose: 200.0 mg/kg/injection, schedule: Q04DX002 (ip), vehicle: other 94 % of control and 104 % of control and 123 % of control | dose: 200.0 mg/kg/injection, schedule: Q04DX003 (ip), vehicle: other 119 % of control | dose: 400.0 mg/kg/injection, schedule: Q04DX002 (ip), vehicle: carboxymethylcellulose (CMC) 109 % of control | dose: 400.0 mg/kg/injection, schedule: Q04DX002 (ip), vehicle: other 108 % of control and 119 % of control | dose: 400.0 mg/kg/injection, schedule: Q04DX003 (ip), vehicle: other 105 % of control | dose: 800.0 mg/kg/injection, schedule: Q04DX002 (ip), vehicle: other 112 % of control

CSCSCC(NC(=O)c1ccccc1)C(=O)O (stereo not drawn)
inactive: [11] 104 % of control | dose: 150.0 mg/kg/injection, schedule: Q04DX003 (ip), vehicle: saline 90 % of control | [12] 104 % of control | dose: 300.0 mg/kg/injection, schedule: Q04DX003 (ip), vehicle: saline 87 % of control | [13] 98 % of control | dose: 600.0 mg/kg/injection, schedule: Q04DX003 (ip), vehicle: saline 92 % of control

CCCCOCCCNCC(=O)Nc1ccc(S(=O)(=O)c2ccc(NC(=O)CNCCCOCCCC)cc2)cc1
inactive: [11] 89 % of control | [12] 97 % of control | [13] 108 % of control

COc1cc(/C=C/C(=O)c2ccc3c(c2)OCO3)ccc1OCc1ccccc1
inactive: dose: 100.0 mg/kg/injection, schedule: Q04DX003 (ip), vehicle: water 93 % of control | dose: 200.0 mg/kg/injection, schedule: Q04DX003 (ip), vehicle: water 91 % of control | dose: 400.0 mg/kg/injection, schedule: Q04DX003 (ip), vehicle: water 93 % of control

O=C(C(Br)C(Br)c1ccccc1)N1CCOCC1 (stereo not drawn)
inactive: dose: 100.0 mg/kg/injection, schedule: Q01DX009 (ip), vehicle: saline sonified 108 % of control | dose: 100.0 mg/kg/injection, schedule: Q04DX003 (ip), vehicle: saline 109 % of control | dose: 200.0 mg/kg/injection, schedule: Q01DX009 (ip), vehicle: saline sonified 101 % of control | dose: 200.0 mg/kg/injection, schedule: Q04DX003 (ip), vehicle: saline 100 % of control | dose: 400.0 mg/kg/injection, schedule: Q01DX009 (ip), vehicle: saline sonified 95 % of control | dose: 400.0 mg/kg/injection, schedule: Q04DX003 (ip), vehicle: saline 98 % of control

CCCCCCCCCCCCCCCC(=O)OC
inactive: [5] 105 % of control | [6] 98 % of control | [7] 101 % of control | [8] 93 % of control | [9] 97 % of control | [10] 98 % of control

NC(=Nc1ccc([N+](=O)[O-])cc1)c1ccccc1
inactive: [2] 98 % of control | [3] 102 % of control | [4] 100 % of control

CSc1cc(C)c(O)c(C)c1
inactive: dose: 100.0 mg/kg/injection, schedule: Q01DX009 (ip), vehicle: other 98 % of control | dose: 200.0 mg/kg/injection, schedule: Q01DX009 (ip), vehicle: other 101 % of control

O=C1c2cc(N=C(NO)C(F)(F)F)ccc2-c2ccc([N+](=O)[O-])cc21
inactive: dose: 100.0 mg/kg/injection, schedule: Q01DX001 (ip), vehicle: carboxymethylcellulose (CMC) 90 % of control | dose: 200.0 mg/kg/injection, schedule: Q01DX001 (ip), vehicle: carboxymethylcellulose (CMC) 90 % of control | dose: 400.0 mg/kg/injection, schedule: Q01DX001 (ip), vehicle: carboxymethylcellulose (CMC) 100 % of control

c1ccc(C2=C([P+](c3ccccc3)(c3ccccc3)c3ccccc3)CCO2)cc1
inactive: dose: 3.0 mg/kg/injection, schedule: Q04DX003 (ip), vehicle: saline 102 % of control | dose: 3.12 mg/kg/injection, schedule: Q01DX009 (ip), vehicle: saline 117 % of control | dose: 6.0 mg/kg/injection, schedule: Q01DX001 (ip), vehicle: saline 108 % of control | dose: 6.0 mg/kg/injection, schedule: Q04DX003 (ip), vehicle: saline 117 % of control | dose: 6.25 mg/kg/injection, schedule: Q01DX009 (ip), vehicle: saline 109 % of control | dose: 12.0 mg/kg/injection, schedule: Q01DX001 (ip), vehicle: saline 108 % of control | dose: 12.0 mg/kg/injection, schedule: Q04DX003 (ip), vehicle: saline 101 % of control and 107 % of control | dose: 12.5 mg/kg/injection, schedule: Q01DX009 (ip), vehicle: saline 92 % of control | dose: 25.0 mg/kg/injection, schedule: Q01DX001 (ip), vehicle: saline 102 % of control
